Measurements from patent US8791144B2, “Substituted N-phenyl-1-(4-Pyridinyl)-1H-pyrazol-3-amines” (Janssen Pharmaceutica NV, priority 2009, dated 2014).

Columns and labels:
hα7-wt nAChR [1] = biological target: T1, hα7-wt nAChR (Homo sapiens, UniProt P36544); assay: Ca2+ flux imaging (FDSS): potentiation of the choline response; assay type: cell-based; conditions: Ca2+ assay as described in D.1; potentiation of choline response, hα7-wt nAChR; read-out: Potency (pEC50) (converted)
Procedure: • a) Assay Buffer • Hanks buffered saline solution (HBSS, Invitrogen, Belgium), supplemented with 10 mM HEPES (Invitrogen, Belgium), CaCl2 to a final concentration of 5 mM, 0.1% Bovine serum albumin (Sigma-Aldrich NV, Belgium). • b) Calcium-Sensitive Dye—Fluo-4AM • Fluo-4AM (Molecular Probes, USA) was dissolved in DMSO containing 10% Pluronic acid (Molecular Probes, USA) to give a stock solution which was diluted in assay buffer supplemented with 5 mM probenicid (Sigma, Aldrich NV, Belgium) to give a final concentration of 2 μM. • c) 384-Well Plates • Black 384 well plate black/clear plates, PDL pre-coated (Corning, Incorporated, USA) • d) Calcium Flux Measurement • A Functional drug screening system (FDSS, Hamamatsu) was used to measure intracellular free-calcium flux signals. Method
Monolayers of hα7-wt nAChR-expressing cells were grown in multi-well plates, in particular black-sided, transparent bottomed 384 well plates coated with poly-D-lysine for 24 hours prior to loading with a fluorescent calcium indicator, in a particular embodiment loading with fluo-4AM for up to 120 minutes.
PAM activity was detected in real time by applying the compounds to be tested to the loaded cells along with a α7 nicotinic receptor agonist during constant monitoring of cellular fluorescence in a FDSS. Compounds giving peak fluorescent responses greater than the response due to agonist alone, were considered to be α7 nAChR PAM's. In a particular embodiment, the α7 nicotinic receptor agonist was choline, a more particular embodiment choline applied at a sub-maximal concentration of 100 μM. In a further setting of the present invention the compounds to be tested were applied prior to the α7 nicotinic receptor agonist, in a particular embodiment up to 10 minutes prior to the agonist.
A control response to choline was calculated on each plate from the difference in peak in fluorescence in wells receiving either choline or assay buffer alone. Compounds of the present invention were tested at a concentration range from 0.01 μM to 30 μM. Compounds were considered to have an interesting activity when they potentiated the choline signal at least with 200% when tested at a concentration of 30 μM (the efficacy of 100 μM choline was defined as 100% in the absence of a PAM). An EC50 (or pEC50) was determined as a concentration relating to half the maximal effect, when a clear sigmoidal curve with top plateau was obtained.

hα7-wt nAChR [2] = biological target: T1, hα7-wt nAChR; assay: Patch-clamp current recording (whole-cell voltage clamp), potentiation of choline current and PAM type; assay type: cell-based; design: key: Type 0 compounds minimally enhance the effect size of the current elicited by 1 mM choline.; Type 1 compounds enhance the effect size of the current elicited by 1 mM choline but minimally alter the kinetics of the receptor.; Type 2 compounds enhance the effect size of the current elicited by 1 mM choline while reducing the rate and/or the extent of desensitization.; Type 3 compounds enhance the effect size of the current elicited by 1 mM choline. When tested at higher concentrations up to 10 μM they completely inhibit desensitization, in particular a 1 mM choline application of 250 milliseconds.; Type 4 compounds allow for an initial desensitization of the receptor followed by a re-opening of the receptor during agonist application; conditions: hα7-wt nAChR-expressing GH4C1 cells, 1 mM choline
Procedure: The compounds of the present invention are classified as type 0-4, based on qualitative kinetic properties, as determined by whole-cell voltage-clamp recordings. This classification is based on the effect of an α7 PAM compound, as described hereinbefore, on the signal elicited by an agonist application. In particular, said agonist is choline at a concentration of 1 mM. In a preferred experimental setting, said α7 PAM compound and choline are simultaneously applied to the cell, as described hereinafter. Desensitization is defined as the closure of the receptor upon activation during the application of the agonist in whole-cell voltage-clamp electrophysiology measurements seen as the reduction of the […] current after initial activation by the agonist.
The definition of the PAM types 0-4 is described hereinafter: • Type 0 compounds minimally enhance the effect size of the current elicited by 1 mM choline. • Type 1 compounds enhance the effect size of the current elicited by 1 mM choline but minimally alter the kinetics of the receptor. In particular, the rate and the extent of desensitization, elicited by the agonist, is not affected. The compound-modulated response to 1 mM choline, therefore, is a close to linear scaling of the 1 mM choline response in absence of the α7 PAM compound. • Type 2 compounds enhance the effect size of the current elicited by 1 mM choline while reducing the rate and/or the extent of desensitization. • Type 3 compounds enhance the effect size of the current elicited by 1 mM choline. […] At low-potency concentrations of the α7 PAM compound, the agonist-induced activation, which is followed by desensitization, can still be separated from the compound-induced re-opening as an initial inward current-maximum. At higher potency concentrations of the α7 PAM compound, the re-opening occurs faster than the closure due to desensitization so that the initial current-maximum disappears.
A compound was considered to have interesting PAM-like activity when the potentiation of the peak current was at least 200% compared to the control choline response (=100%). Such compounds are classified as belonging to a particular PAM type in the Experimental Part. Compounds not meeting the condition are not classified as belonging to a particular PAM-type.
The compounds also have a potentiating effect on the response to choline when measured by whole-cell patch clamp electrophysiology in GH4C1 cells stably over-expressing the human wild-type α7 receptor.
Patch-clamp recording from mammalian cells has provided a powerful means of assessing the function of membrane-bound proteins thought to be subunits of ligand-gated ion channels. Activation of such proteins by endogenous or exogenous ligands cause opening of a pore associated with the receptor through which ions flow down their electrochemical gradient. In the case of the hα7-wt nAChR-expressing GH4C1 recombinant cell line the preferential permeability to calcium of this receptor means that calcium flows into the cell upon activation by ACh, choline and other nicotinic ligands giving rise to a calcium current. Since this receptor rapidly desensitizes in the presence of agonist it is important an application system is used which is capable of very rapid switching of solutions (<100 ms) to prevent partial or full desensitisation of receptor responses coincident with the time of agonist application. Consequently, a second convenient technique to assess the enhancement of nicotinic efficacy is patch-clamp recording from hα7-wt nAChR-expressing GH4C1 cells coupled with a rapid-application system.
• a) Assay Buffers • The external recording solution consisted of 152 mM NaCl, 5 mM KCl, 1 mM MgCl2, 1 mM Calcium, 10 mM HEPES; pH 7.3. […]

T1 sequence (P36544 23-502): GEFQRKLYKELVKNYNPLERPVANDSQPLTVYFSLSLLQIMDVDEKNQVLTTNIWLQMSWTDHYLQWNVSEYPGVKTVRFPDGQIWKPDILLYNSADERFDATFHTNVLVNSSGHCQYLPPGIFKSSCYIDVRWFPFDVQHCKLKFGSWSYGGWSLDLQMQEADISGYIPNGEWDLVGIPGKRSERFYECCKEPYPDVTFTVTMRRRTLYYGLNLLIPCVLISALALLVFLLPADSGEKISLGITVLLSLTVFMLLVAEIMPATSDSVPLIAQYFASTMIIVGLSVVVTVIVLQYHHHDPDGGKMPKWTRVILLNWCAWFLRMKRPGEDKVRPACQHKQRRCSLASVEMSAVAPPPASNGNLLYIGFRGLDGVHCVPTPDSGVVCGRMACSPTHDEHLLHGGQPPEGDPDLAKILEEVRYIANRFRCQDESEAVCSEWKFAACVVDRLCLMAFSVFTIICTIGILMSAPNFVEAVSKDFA

Structure (SMILES)	EC50 (hα7-wt nAChR [1])	melting point	PAM type (hα7-wt nAChR [2])
Cc1cc(-n2nc(Nc3cccc(Cl)c3F)cc2CC(=O)NC2CC2)cc(C)n1 [Compound 78, 3-[(3-chloro-2-fluorophenyl)amino]-N-cyclopropyl-1-(2,6-dimethyl-4-pyridinyl)-1H-pyrazole-5-acetamide]	407 nM	222.9 °C	2
Cc1cc(-n2nc(Nc3ccc4c(c3)OC(F)(F)O4)cc2CC(=O)NCC2CC2)ccn1 [Compound 101, N-(cyclopropylmethyl)-3-[(2,2-difluoro-1,3-benzodioxol-5-yl)amino]-1-(2-methyl-4-pyridinyl)-1H-pyrazole-5-acetamide]	603 nM	232.3 °C	2
CCNC(=O)Cc1cc(Nc2cccc(C(F)(F)F)c2)nn1-c1ccnc(C)c1 [Compound 44, N-ethyl-1-(2-methyl-4-pyridinyl)-3-[[3-(trifluoromethyl)phenyl]amino]-1H-pyrazole-5-acetamide]	603 nM	228.9 °C	2
CCNC(=O)Cc1cc(Nc2cc(Cl)cc(OC)c2)nn1-c1ccnc(C)c1 [Compound 74, 3-[(3-chloro-5-methoxyphenyl)amino]-N-ethyl-1-(2-methyl-4-pyridinyl)-1H-pyrazole-5-acetamide]	776 nM	224 °C	4
Cc1cc(-n2nc(Nc3cccc(OC(F)(F)F)c3)cc2CC(=O)NCC2CC2)cc(C)n1 [Compound 120, N-(cyclopropylmethyl)-1-(2,6-dimethyl-4-pyridinyl)-3-[[3-(trifluoromethoxy)phenyl]amino]-1H-pyrazole-5-acetamide]	141 nM	199.4 °C	2
CCNC(=O)Cc1cc(Nc2cc(OC)cc(C(F)(F)F)c2)nn1-c1ccnc(C)c1 [Compound 45, N-ethyl-3-[[3-methoxy-5-(trifluoromethyl)phenyl]amino]-1-(2-methyl-4-pyridinyl)-1H-pyrazole-5-acetamide]	200 nM	248.6 °C	4
Cc1cc(-n2nc(Nc3cccc(OC(F)(F)F)c3)cc2CC(=O)NC2CC2)cc(C)n1 [Compound 118, N-cyclopropyl-1-(2,6-dimethyl-4-pyridinyl)-3-[[3-(trifluoromethoxy)phenyl]amino]-1H-pyrazole-5-acetamide]	324 nM	230.8 °C	2
CCNC(=O)Cc1cc(Nc2ccc(F)c(F)c2)nn1-c1ccnc(C)c1 [Compound 28, 3-[(3,4-difluorophenyl)amino]-N-ethyl-1-(2-methyl-4-pyridinyl)-1H-pyrazole-5-acetamide]	2510 nM	242.4 °C	2

Further lines, with some results ahead:

EC50 (hα7-wt nAChR [1])	melting point	Structure (SMILES)	PAM type (hα7-wt nAChR [2])
1150 nM	171 °C	Cc1cc(-n2nc(Nc3ccc(F)c(F)c3)cc2COCc2ccccc2)ccn1 [Compound 31, N-(3,4-difluorophenyl)-1-(2-methyl-4-pyridinyl)-5-[(phenylmethoxy)methyl]-1H-pyrazol-3-amine]	0
2240 nM	229.7 °C	CNC(=O)Cc1cc(Nc2cccc(Cl)c2F)nn1-c1ccnc(C)c1 [Compound 71, 3-[(3-chloro-2-fluorophenyl)amino]-N-methyl-1-(2-methyl-4-pyridinyl)-1H-pyrazole-5-acetamide]	2
2510 nM	168.2 °C	CC[C@H](O)Cc1cc(Nc2cccc(Cl)c2F)nn1-c1ccnc(C)c1 [Compound 58, (alphaS)-3-[(3-chloro-2-fluorophenyl)amino]-alpha-ethyl-1-(2-methyl-4-pyridinyl)-1H-pyrazole-5-ethanol]	1
794 nM	125.3 °C	CC[C@H](O)Cc1cc(Nc2cc(Cl)cc(OC)c2)nn1-c1ccnc(C)c1 [Compound 61, (alphaS)-3-[(3-chloro-5-methoxyphenyl)amino]-alpha-ethyl-1-(2-methyl-4-pyridinyl)-1H-pyrazole-5-ethanol]	2
324 nM	191.7 °C	Cc1cc(-n2nc(Nc3cccc(OC(F)(F)F)c3)cc2CC(=O)NCC2CC2)ccn1 [Compound 119, N-(cyclopropylmethyl)-1-(2-methyl-4-pyridinyl)-3-[[3-(trifluoromethoxy)phenyl]amino]-1H-pyrazole-5-acetamide]	2
219 nM	207.5 °C	Cc1cc(-n2nc(Nc3cccc(C(F)(F)F)c3)cc2CC(=O)NCC2CC2)ccn1 [Compound 47, N-(cyclopropylmethyl)-1-(2-methyl-4-pyridinyl)-3-[[3-(trifluoromethyl)phenyl]amino]-1H-pyrazole-5-acetamide]	4
2240 nM	149.3 °C	CC[C@H](O)Cc1cc(Nc2cccc(Cl)c2)nn1-c1ccnc(C)c1 [Compound 57, (alphaS)-3-[(3-chlorophenyl)amino]-alpha-ethyl-1-(2-methyl-4-pyridinyl)-1H-pyrazole-5-ethanol]	2
2290 nM	169.5 °C	CC[C@H](O)Cc1cc(Nc2cccc(C(F)(F)F)c2)nn1-c1ccnc(C)c1 [Compound 37, (alphaS)-alpha-ethyl-1-(2-methyl-4-pyridinyl)-3-[[3-(trifluoromethyl)phenyl]amino]-1H-pyrazole-5-ethanol]	2
692 nM	170 °C	CC[C@@H](O)Cc1cc(Nc2cccc(C(F)(F)F)c2)nn1-c1ccnc(C)c1 [Compound 35, (alphaR)-alpha-ethyl-1-(2-methyl-4-pyridinyl)-3-[[3-(trifluoromethyl)phenyl]amino]-1H-pyrazole-5-ethanol]	2
